Legend:
[1] = Stability study in CH3CN; assay type: physicochemical; conditions: 25° C., checked by HPLC and 1H-NMR
Method: Stability and solubility studies of the sulfur transfer reagents were performed. […] The stability of the compound was checked by HPLC and ^1H-NMR.
(§1) The solubility and stability studies were carried out in CH3CN at 25° C. The saturated solution was dried, and the solubility was determined by the weight of the testing compounds in the exact volume of testing solution. The stability was determined based on either TLC or HPLC and ^1H-NMR analyses.

[2] = Solubility study in CH3CN; assay type: physicochemical; conditions: 25° C.
Method: as §1

stable in CH3CN [1]: more than thirty | solubility in CH3CN [2]: highly soluble
Compound: O=c1nc(-c2ccccc2)ss1 [3-phenyl-1,2,4-dithiazoline-5-one]

— patent US6500944B2, “Sulfurizing reagent: 3-aryl-1,2,4-dithiazoline-5-ones” (Avecia Biotechnology, Inc., priority 1997, dated 2002)
